The values that follow come from patent US8389573B2, “Glycyrrhetinic acid derivatives” (Wellington Laboratories Inc., priority 2006, dated 2013).

The test system of one test is PSA mRNA. In words: Real-time PCR of PSA mRNA in LNCaP cells. It is filed as cell-based, human. Particulars: 12 or 18 hr. Here is the method: Real-Time PCR: Total RNA was isolated using the RNeasy Protect Mini kit (QIAGEN, Valencia, Calif.) according to the manufacturer's protocol. RNA was eluted with 30 μl of RNasefree water and stored at −80° C. RNA was reverse transcribed using Superscript II reverse transcriptase (Invitrogen) according to the manufacturer's protocol. cDNA was prepared from the LNCaP cell line using a combination of oligodeoxythymidylic acid and dNTP mix (Applied Biosystems, Foster City, Calif.) and Superscript II (Invitrogen). Each PCR was carried out in triplicate in a 25-μl volume using SYBR Green Master mix (Applied Biosystems) for 15 min at 95° C. for initial denaturing, followed by 40 cycles of 95° C. for 30 s and 60° C. for 1 min in the ABI Prism 7700 sequence detection system (Applied Biosystems). The ABI Dissociation Curves software was used after a brief thermal protocol (95° C. 15 s and 60° C. 20 s, followed by a slow ramp to 95° C.) to control for multiple species in each PCR amplification. The comparative CT method was used for relative quantitation of samples. Values for each gene were normalized to expression levels of TATA-binding protein. Primers were purchased from Integrated DNA Technologies (Coralville, Iowa). The sequences of the primers used for reverse transcription-PCR were as follows: AR forward, 5′-GTA CCC TGG CGG CAT GGT-3′ [SEQ ID NO: 1] and AR reverse, 5′-CCCATTTCGCTTTTGACACA-3′ [SEQ ID NO: 2]; PSA forward, 5′-GCATTGAACCAGAGGAGTTCTTG-3′ [SEQ ID NO: 3] and PSA reverse, 5′-TTG CGC ACA CAC GTC ATT G-3′ [SEQ ID NO: 4]; and TATA-binding protein forward, 5′-TGCACAGGAGCCAAGAGTGAA-3′ [SEQ ID NO: 5] and reverse, 5′-CACATCACAGCTCCCCACCA-3′ [SEQ ID NO: 6].
In general terms: In qPCR the cycle at which signal appears reflects the starting amount.

The target of the next test is T1, PPARγ (Homo sapiens, UniProt P37231).
T1 construct: endogenous in cells; host or cells: SW480 colon cancer cells
T1 sequence (P37231 1-505): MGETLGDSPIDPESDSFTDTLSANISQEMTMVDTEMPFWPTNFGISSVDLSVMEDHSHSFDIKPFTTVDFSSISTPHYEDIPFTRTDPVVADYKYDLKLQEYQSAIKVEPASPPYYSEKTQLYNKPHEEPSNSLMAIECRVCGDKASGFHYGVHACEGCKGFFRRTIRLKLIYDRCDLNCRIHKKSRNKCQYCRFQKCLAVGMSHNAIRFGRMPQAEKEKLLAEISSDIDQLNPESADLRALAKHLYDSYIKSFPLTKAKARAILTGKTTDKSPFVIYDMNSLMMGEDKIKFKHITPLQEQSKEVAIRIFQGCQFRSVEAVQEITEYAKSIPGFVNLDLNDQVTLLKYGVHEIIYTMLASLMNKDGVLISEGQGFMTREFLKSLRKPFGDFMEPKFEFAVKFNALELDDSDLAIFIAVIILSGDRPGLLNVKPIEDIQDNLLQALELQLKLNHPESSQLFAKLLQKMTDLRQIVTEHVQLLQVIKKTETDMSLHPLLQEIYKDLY
In words: PPRE3-Luc transfection and luciferase assay in SW480 cells. It is filed as cell-based. How it is done: The Gal4 reporter containing 5× Gal4 response elements (pGal4) was kindly provided by Dr. Marty Mayo (University of North Carolina, Chapel Hill, N.C.). Gal4 DBD-PPARγ construct (gPPARγ) was a gift of Dr. Jennifer L. Oberfield (GlaxoSmithKline Research and Development, Research Triangle Park, N.C.). PPRE3-luc construct contains three tandem PPREs with a minimal TATA sequence in pGL2.
Colon Cancer cell lines SW480 and HT29 (1×10^5 cells/well) were plated in 12-well plates in DMEM/Ham's F-12 media supplemented with 2.5% charcoal-stripped FBS. After 16 h, various amounts of DNA [i.e., Gal4Luc (0.4 μg), β-Gal (0.04 μg), Gal4PPAR and PPRE3-Luc (0.04 μg)] were transfected using LipofectAMINE™ reagent (Invitrogen) following the manufacturer's protocol. Five hours after transfection, the transfection mix was replaced with complete media containing either vehicle (DMSO) or the indicated ligand for 20 to 22 h. Cells were then lysed with 100 μl of 1× reporter lysis buffer, and 30 μl of cell extract was used for luciferase and […] assays. A LumiCount™ luminometer (PerkinElmer Life and Analytical Sciences) was used to quantitate luciferase and β-Gal activities, and the luciferase activities were normalized to β-Gal activity. Results are expressed as means±S.E. for at least three replicate determinations for each treatment group

For another test, the system named is PSA promoter. In words: PSA-luc promoter luciferase assay in LNCaP cells. It is filed as cell-based. Particulars: basal. The source says: Transfections: The Gal4 reporter construct containing 5× Gal4 response elements (pGal4) was kindly provided by Dr. Marty Mayo (University of North Carolina, Chapel Hill, N.C.). The Gal4 DBD-PPARγ construct was a gift of Dr. Jennifer L. Oberfield (Glaxo Wellcome Research and Development, Research Triangle Park, N.C.). The PPRE-luc construct contains three tandem PPREs with a minimal TATA sequence linked to the luciferase gene in pGL2. The AR-luc construct containing the −5400 to +580 region of the androgen receptor promoter was provided by Dr. Donald J. Tindall (Mayo Clinic, Rochester, Minn.), and the PSA-luc construct containing the 5.8-kilobase region of the PSA promoter was provided by Dr. Hong-Wu Cheng (University of California, Davis, Calif.). LNCaP cells (1×10^5) were seeded in 12-well plates in DMEM/Ham's F-12 media supplemented with 2.5% charcoal-stripped FBS and grown overnight. Transient transfections were performed using Lipofectamine reagent (Invitrogen) according to the protocol provided by the manufacturer. Transfection studies were performed using 0.4 μg of Gal4Luc, 0.04 μg of β-galactosidase, 0.04 μg of Gal4 DBD-PPARγ, 0.4 μg of AR-luc, and 0.3 μg of PSA-luc. […] A Lumicount luminometer (PerkinElmer Life and Analytical Sciences) was used to quantify luciferase and β-galactosidase activities, and the luciferase activities were normalized to β-galactosidase activity.

With `COC(=O)[C@@]1(C)CC[C@]2(C)CC[C@]3(C)C(=CC(=O)[C@@H]4[C@@]5(C)C=C(C#N)C(=O)C(C)(C)[C@@H]5CC[C@]43C)[C@@H]2C1` [β-CDODA-Me, Methyl 2-cyano-3,11-dioxo-18β-oleana-1,12-dien-30-oate], in the test with PSA mRNA, the “PSA mRNA levels” value is recorded as “downregulation of PSA mRNA levels”, the “PSA mRNA response after cotreatment with T007” value is given as “not inhibited” and the “downregulation of PSA mRNA levels after cotreatment with cycloheximide” value was “significantly inhibited”. Moreover, the “transactivation of PPRE3-Luc” value on PPARγ is “induced transactivation”. Moreover, at PPARγ (10 μM antagonist), the “PPRE3-Luc transactivation after cotreatment with PPARγ antagonists T007 and GW9662” value was “inhibited”. In addition, the “transactivation of PSA-Luc construct” value with PSA promoter is on record as “inhibited transactivation”.
